Measured values reported in ChEMBL document CHEMBL5370611, “Discovery of 4,5,6,7-Tetrahydropyrazolo[1.5-a]pyrizine Derivatives as Core Protein Allosteric Modulators (CpAMs) for the Inhibition of Hepatitis B Virus” (J Med Chem, 2023).
In brackets after ≈: the same amount, converted by molar mass.

How the values were obtained:
[1] = Selectivity index, ratio of CC50 for human HepDE19 cells assessed as reduction in cell viability to EC50 for HBV infected in human HepG2.2.15 cells assessed as reduction in HBV DNA replication; format: toxicity, cell-based; details: HBV-infected HepG2.2.15 cells (EC50)
[2] = Cytotoxicity against human HepDE19 cells assessed as reduction in cell viability measured after 5 days by CCK-8 method; format: functional; details: HepDE19, 120 h, time 5 day
Hepatitis B virus = assay: Antiviral activity against HBV infected in human HepG2.2.15 cells assessed as reduction in HBV DNA replication measured after 5 days by qPCR analysis; format: functional, organism-based; details: HepG2.2.15, 120 h
[3] = Metabolic stability in mouse liver microsomes assessed as clearance at 1 uM preincubated for 10 mins and measured upto 30 mins in presence of NADPH generating system by LC-MS/MS analysis; format: ADME, Microsome; details: time < 40 min
[4] = Metabolic stability in human liver microsomes assessed as clearance at 1 uM preincubated for 10 mins and measured upto 30 mins in presence of NADPH generating system by LC-MS/MS analysis; format: ADME, Microsome; details: time < 40 min
[5] = Lyophilization solubility of the compound in phosphate buffer at pH 6.5 incubated for 1 hr under stirring condition and 2 hrs under shaking condition by HPLC-UV analysis; format: physicochemical

Compound: C[C@@H]1CN(C(=O)Nc2ccc(F)c(Cl)c2)Cc2c(-c3ccc(F)cc3)cnn21
- selectivity ratio [1]: 2620
- CC50 [2]: 97 µM
- EC50 (Hepatitis B virus): 37 nM

Compound: O=C(Nc1ccc(Cl)cc1)N1CCn2ncc(-c3ccc(F)cc3)c2C1
- selectivity ratio [1]: 79
- CC50 [2]: 29 µM
- EC50 (Hepatitis B virus): 366 nM

Compound: O=C(Nc1cccnn1)N1CCn2ncc(-c3ccc(F)cc3)c2C1
- CLhep predicted at 1 µM [3]: 34 mL/min/kg
- CLhep predicted at 1 µM [4]: 7 mL/min/kg
- CC50 [2]: > 100 µM
- solubility at 3 h [5]: 2 µg/mL (≈ 5.91 µM)
- EC50 (Hepatitis B virus): > 10000 nM

Compound: O=C(Nc1ccc(F)c(Cl)c1)N1CCn2ncc(-c3ncc(F)cn3)c2C1
- CLhep predicted at 1 µM [3]: 69 mL/min/kg
- selectivity ratio [1]: 250
- CLhep predicted at 1 µM [4]: 14 mL/min/kg
- CC50 [2]: 32 µM
- solubility at 3 h [5]: 6 µg/mL (≈ 15.4 µM)
- EC50 (Hepatitis B virus): 128 nM

Compound: CCCc1cccc(NC(=O)N2CCn3ncc(-c4ccc(F)cc4)c3C2)c1
- selectivity ratio [1]: 5
- CC50 [2]: 13 µM
- solubility at 3 h [5]: 4.4 µg/mL (≈ 11.6 µM)
- EC50 (Hepatitis B virus): 2710 nM

Compound: O=C(Nc1cccc(F)c1)N1CCn2ncc(-c3ccc(F)cc3)c2C1
- selectivity ratio [1]: 76
- CC50 [2]: 32 µM
- EC50 (Hepatitis B virus): 414 nM

Compound: O=C(Nc1cc(F)cc(F)c1)N1CCn2ncc(-c3ccc(F)cc3)c2C1
- selectivity ratio [1]: 49
- CC50 [2]: 11 µM
- EC50 (Hepatitis B virus): 219 nM

Compound: O=C(Nc1ccc(F)c(F)c1)N1CCn2ncc(-c3ccc(F)cc3)c2C1
- CLhep predicted at 1 µM [3]: 65 mL/min/kg
- selectivity ratio [1]: 222
- CLhep predicted at 1 µM [4]: 16 mL/min/kg
- CC50 [2]: 34 µM
- EC50 (Hepatitis B virus): 155 nM

Compound: O=C(Nc1ccccn1)N1CCn2ncc(-c3ccc(F)cc3)c2C1
- CLhep predicted at 1 µM [3]: 80 mL/min/kg
- CLhep predicted at 1 µM [4]: 17 mL/min/kg
- CC50 [2]: > 100 µM
- solubility at 3 h [5]: 2 µg/mL (≈ 5.93 µM)
- EC50 (Hepatitis B virus): > 10000 nM

Compound: O=C(Nc1ccccc1)N1CCn2cnc(-c3ccc(F)cc3)c2C1
- CLhep predicted at 1 µM [3]: 76 mL/min/kg
- selectivity ratio [1]: > 349
- CLhep predicted at 1 µM [4]: 14 mL/min/kg
- CC50 [2]: > 100 µM
- solubility at 3 h [5]: < 1 µg/mL
- EC50 (Hepatitis B virus): 286 nM

Compound: O=C(Nc1ccccc1)N1CCc2[nH]nc(-c3ccc(F)cc3)c2C1
- CLhep predicted at 1 µM [3]: 63 mL/min/kg
- selectivity ratio [1]: 156
- CLhep predicted at 1 µM [4]: 21 mL/min/kg
- CC50 [2]: 59 µM
- solubility at 3 h [5]: 5 µg/mL (≈ 14.9 µM)
- EC50 (Hepatitis B virus): 377 nM

Compound: CC1c2c(-c3ccc(F)cc3)cnn2CCN1C(=O)Nc1ccccc1 (configuration not stated)
- selectivity ratio [1]: 24
- CC50 [2]: 45 µM
- solubility at 3 h [5]: < 1 µg/mL
- EC50 (Hepatitis B virus): 1850 nM

Compound: C[C@H]1[C@H](C)n2ncc(N3CCCC3=O)c2CN1C(=O)Nc1cc(F)c(F)c(F)c1
- CLhep predicted at 1 µM [3]: 73 mL/min/kg
- selectivity ratio [1]: > 1920
- CLhep predicted at 1 µM [4]: 15 mL/min/kg
- CC50 [2]: > 100 µM
- solubility at 3 h [5]: 525 µg/mL (≈ 1290 µM)
- EC50 (Hepatitis B virus): 52 nM

Compound: C[C@@H]1[C@H](C)N(C(=O)Nc2cc(F)c(F)c(F)c2)Cc2c(N3CCCC3=O)cnn21
- CLhep predicted at 1 µM [3]: 45 mL/min/kg
- selectivity ratio [1]: > 2500
- CLhep predicted at 1 µM [4]: 8.7 mL/min/kg
- CC50 [2]: > 100 µM
- solubility at 3 h [5]: 515 µg/mL (≈ 1260 µM)
- EC50 (Hepatitis B virus): 40 nM

Compound: O=C(Nc1ccc(F)c(Cl)c1)N1CCn2ncc(N3CCOCC3)c2C1
- CLhep predicted at 1 µM [3]: 34 mL/min/kg
- selectivity ratio [1]: > 376
- CLhep predicted at 1 µM [4]: 7.2 mL/min/kg
- CC50 [2]: > 100 µM
- solubility at 3 h [5]: 170 µg/mL (≈ 448 µM)
- EC50 (Hepatitis B virus): 266 nM

Compound: O=C(Nc1ccccc1Cl)N1CCn2ncc(-c3ccc(F)cc3)c2C1
- CC50 [2]: > 100 µM
- EC50 (Hepatitis B virus): > 10000 nM

Compound: O=C(NC1CCCC1)N1CCn2ncc(-c3ccc(F)cc3)c2C1
- selectivity ratio [1]: > 54
- CC50 [2]: > 100 µM
- EC50 (Hepatitis B virus): 1850 nM

Compound: O=C(Nc1cc(F)c(F)c(F)c1)N1CCn2ncc(-c3ccc(F)cc3)c2C1
- CLhep predicted at 1 µM [3]: 63 mL/min/kg
- selectivity ratio [1]: 80
- CLhep predicted at 1 µM [4]: 16 mL/min/kg
- CC50 [2]: 31 µM
- EC50 (Hepatitis B virus): 387 nM

Compound: O=C(Nc1ccc(F)c(Cl)c1)N1CCn2ncc(N3CCOCC3=O)c2C1
- CLhep predicted at 1 µM [3]: 20 mL/min/kg
- selectivity ratio [1]: > 645
- CLhep predicted at 1 µM [4]: 6.2 mL/min/kg
- CC50 [2]: > 100 µM
- solubility at 3 h [5]: 158 µg/mL (≈ 401 µM)
- EC50 (Hepatitis B virus): 155 nM

Compound: O=C(Nc1ccc(F)c(Cl)c1)N1CCn2ncc(-c3ccc(F)cc3F)c2C1
- CLhep predicted at 1 µM [3]: 66 mL/min/kg
- selectivity ratio [1]: 1180
- CLhep predicted at 1 µM [4]: 17 mL/min/kg
- CC50 [2]: 42 µM
- solubility at 3 h [5]: < 1 µg/mL
- EC50 (Hepatitis B virus): 36 nM

Compound: O=C(Nc1ccc(F)c(Cl)c1)N1CCn2ncc(N3CCCC3)c2C1
- CLhep predicted at 1 µM [3]: 79 mL/min/kg
- selectivity ratio [1]: 440
- CLhep predicted at 1 µM [4]: 16 mL/min/kg
- CC50 [2]: 97 µM
- solubility at 3 h [5]: 134 µg/mL (≈ 368 µM)
- EC50 (Hepatitis B virus): 220 nM

Compound: O=C(NCc1ccccc1)N1CCn2ncc(-c3ccc(F)cc3)c2C1
- selectivity ratio [1]: 63
- CC50 [2]: 91 µM
- EC50 (Hepatitis B virus): 1440 nM

Compound: Cc1cc(NC(=O)N2CCn3ncc(-c4ccc(F)cc4)c3C2)ccc1F
- CLhep predicted at 1 µM [3]: 68 mL/min/kg
- selectivity ratio [1]: 830
- CLhep predicted at 1 µM [4]: 16 mL/min/kg
- CC50 [2]: 26 µM
- EC50 (Hepatitis B virus): 32 nM

Compound: C[C@H]1Cn2ncc(N3CCOCC3=O)c2CN1C(=O)Nc1cc(F)c(F)c(F)c1
- CLhep predicted at 1 µM [3]: 29 mL/min/kg
- selectivity ratio [1]: > 1590
- CLhep predicted at 1 µM [4]: 6.2 mL/min/kg
- CC50 [2]: > 100 µM
- solubility at 3 h [5]: 415 µg/mL (≈ 1010 µM)
- EC50 (Hepatitis B virus): 63 nM

Compound: O=C(Cc1ccccc1)N1CCn2ncc(-c3ccc(F)cc3)c2C1
- selectivity ratio [1]: > 32
- CC50 [2]: > 100 µM
- EC50 (Hepatitis B virus): 3140 nM

Compound: O=C(Nc1cccc(Cl)c1)N1CCn2ncc(-c3ccc(F)cc3)c2C1
- CLhep predicted at 1 µM [3]: 71 mL/min/kg
- selectivity ratio [1]: 284
- CLhep predicted at 1 µM [4]: 18 mL/min/kg
- CC50 [2]: 87 µM
- solubility at 3 h [5]: < 1 µg/mL
- EC50 (Hepatitis B virus): 308 nM

Compound: O=C(Nc1ccccc1)N1CCn2ncc(-c3ccc(F)cc3)c2C1
- CLhep predicted at 1 µM [3]: 76 mL/min/kg
- selectivity ratio [1]: 204
- CLhep predicted at 1 µM [4]: 17 mL/min/kg
- CC50 [2]: 66 µM
- solubility at 3 h [5]: 3 µg/mL (≈ 8.92 µM)
- EC50 (Hepatitis B virus): 323 nM

Compound: Cc1ccc(NC(=O)N2CCn3ncc(-c4ccc(F)cc4)c3C2)cc1
- selectivity ratio [1]: 28
- CC50 [2]: 34 µM
- EC50 (Hepatitis B virus): 1200 nM

Compound: O=C(Nc1ccccc1)N1CCn2nnc(-c3ccc(F)cc3)c2C1
- CLhep predicted at 1 µM [3]: 87 mL/min/kg
- selectivity ratio [1]: > 243
- CLhep predicted at 1 µM [4]: 14 mL/min/kg
- CC50 [2]: > 100 µM
- solubility at 3 h [5]: 32 µg/mL (≈ 94.9 µM)
- EC50 (Hepatitis B virus): 411 nM

Compound: C[C@@H]1Cn2ncc(-c3ccc(F)cc3)c2CN1C(=O)Nc1ccc(F)c(Cl)c1
- selectivity ratio [1]: 234
- CC50 [2]: 26 µM
- solubility at 3 h [5]: < 1 µg/mL
- EC50 (Hepatitis B virus): 111 nM

Compound: C[C@H]1Cn2ncc(-c3ccc(F)cc3)c2CN1C(=O)Nc1ccc(F)c(Cl)c1
- selectivity ratio [1]: 2170
- CC50 [2]: 26 µM
- solubility at 3 h [5]: < 1 µg/mL
- EC50 (Hepatitis B virus): 12 nM

Compound: O=C(Nc1cc(F)c(F)c(F)c1)N1CCn2ncc(N3CCCC3=O)c2C1
- CLhep predicted at 1 µM [3]: 51 mL/min/kg
- selectivity ratio [1]: 101
- CLhep predicted at 1 µM [4]: 6.2 mL/min/kg
- CC50 [2]: 26 µM
- solubility at 3 h [5]: 150 µg/mL (≈ 395 µM)
- EC50 (Hepatitis B virus): 252 nM

Compound: Cc1cccc(NC(=O)N2CCn3ncc(-c4ccc(F)cc4)c3C2)c1
- selectivity ratio [1]: 672
- CC50 [2]: 88 µM
- EC50 (Hepatitis B virus): 131 nM

Compound: O=C(c1ccccc1)N1CCn2ncc(-c3ccc(F)cc3)c2C1
- EC50 (Hepatitis B virus): 3760 nM

Compound: CCc1cccc(NC(=O)N2CCn3ncc(-c4ccc(F)cc4)c3C2)c1
- selectivity ratio [1]: 220
- CC50 [2]: 55 µM
- EC50 (Hepatitis B virus): 248 nM

Compound: C[C@H]1CN(C(=O)Nc2ccc(F)c(Cl)c2)Cc2c(-c3ccc(F)cc3)cnn21
- selectivity ratio [1]: 210
- CC50 [2]: 28 µM
- EC50 (Hepatitis B virus): 133 nM

Compound: O=C(Nc1ccccc1F)N1CCn2ncc(-c3ccc(F)cc3)c2C1
- selectivity ratio [1]: 13
- CC50 [2]: 12 µM
- EC50 (Hepatitis B virus): 939 nM

Compound: CN(C(=O)N1CCn2ncc(-c3ccc(F)cc3)c2C1)c1ccccc1
- selectivity ratio [1]: 42
- CC50 [2]: 93 µM
- EC50 (Hepatitis B virus): 2190 nM
